Experimental data: PubChem BioAssay (NCI)
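Exposure lasted 48 hours, with cells grown in 96-well plates and compounds tested at five concentrations. The concentration for 50% growth inhibition is given as GI50. TGI: total growth inhibition.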

system: HCT-15 colon; experiment: NCI anticancer screen, dose series, 48 h

`CCCSc1nc(COC(=O)NC)c(COC(=O)NC)n1C` and `NC(=O)NCc1c(C(N)=O)ncn1Cc1ccccc1` cannot be ordered by TGI: over 100 µM for the first, over 100 µM for the second.

`O=C1CCC(O)=C1N=Nc1ccccc1` and `Cc1[nH]c2ccccc2c(=O)c1CC=C(Cl)Cl` cannot be ordered by TGI: over 100 µM for the first, over 100 µM for the second.

Compared with `CCN(CC)c1ccc(N=Nc2ccc(-c3nc4ccc[n+](C)c4s3)cc2)cc1`, `CCn1c(SCc2ccc(C)cc2)nnc1-c1nn(-c2ccc(Cl)cc2Cl)c(-c2ccc(Cl)cc2)c1C` is 2.8-fold lower in TGI: 32.1 µM for the first, 11.4 µM for the second.

`Cn1c(=O)c(Cc2ccccc2F)cc2cnc(NC3CCOCC3)nc21` and `COc1c(CCl)cc(-c2cc(=O)c3ccccc3s2)cc1CCl` cannot be ordered by TGI: over 25 µM for the first, over 100 µM for the second.

`O=C1CSC(/C(=N/Nc2ccccc2)c2nc3ccccc3[nH]2)=N1` and `c1ccc(C2Nc3ccccc3C3OCCCC23)cc1` (configuration not stated) cannot be ordered by TGI: over 100 µM for the first, over 100 µM for the second.

`COc1ccc2nc(NC(=O)C(=O)C(C#N)c3ccc([N+](=O)[O-])cc3)sc2c1` (configuration not stated) and `O=C(O)[C@H](NS(=O)(=O)c1ccc([N+](=O)[O-])cc1)c1ccccc1` cannot be ordered by TGI: over 100 µM for the first, over 100 µM for the second.

Going from `CC(C)C[C@H](NC(=O)/C=C/Cn1ccc2ccccc2c1=O)B(O)O` to `COc1ccc(OC)c2c(C(=O)O)c(Cc3ccccc3)ccc12`, the TGI rises from 48.2 µM to over 100 µM.

`COc1cc(/C=C(\C#N)c2ccccc2)cc(OC)c1` and `CN(CCC#N)c1ccc(/C=C(\C#N)c2ccc(Br)cc2)cc1` cannot be ordered by TGI: over 100 µM for the first, over 100 µM for the second.

Compared with `N#Cc1cccnc1Cl`, `COc1cc(NC(C)CCCN)c2nccc(C)c2c1` (configuration not stated) is lower in TGI: over 100 µM for the first, 49.7 µM for the second.

Going from `CCCCCCCCCCCC(=O)OCC1OC(OC)C(NC(=O)N(CCCl)N=O)C(O)C1O` (configuration not stated) to `C=CC/C=C/C/C=C/CCCCCCCc1cccc(O)c1C(=O)O`, the TGI rises from 96.1 µM to over 100 µM.

`O=C(Nc1c(Cl)cc([N+](=O)[O-])cc1Cl)C(=O)C(C1OC(=O)c2ccccc21)[N+](=O)[O-]` (configuration not stated) and `N#CC1CC2(C1)OCCS2` (configuration not stated) cannot be ordered by TGI: over 100 µM for the first, over 100 µM for the second.

`C1C[OH+]CC[OH+]CC[OH+]CC[OH+]CC[OH+]1.[Cl-].[V]` showed a TGI of over 100 µM.

`Cn1c(=O)c(Cc2ccccc2F)cc2cnc(NC3CCOCC3)nc21` and `Cc1[nH]c2ccccc2c(=O)c1CC=C(Cl)Cl` cannot be ordered by GI50: over 25 µM for the first, over 100 µM for the second.

Going from `CC(C)C[C@H](NC(=O)/C=C/Cn1ccc2ccccc2c1=O)B(O)O` to `CN(CCC#N)c1ccc(/C=C(\C#N)c2ccc(Br)cc2)cc1`, the GI50 falls from 6.55 µM to 2.9 µM (2.3-fold).

First: CCn1c(SCc2ccc(C)cc2)nnc1-c1nn(-c2ccc(Cl)cc2Cl)c(-c2ccc(Cl)cc2)c1C
Second: C1C[OH+]CC[OH+]CC[OH+]CC[OH+]CC[OH+]1.[Cl-].[V]
The GI50 of the first is lower: 2.7 µM for the first, over 100 µM for the second.

system: K-562 leukemia; experiment: NCI anticancer screen, dose series, 48 h

`O=C1[C@@H]2C(c3ccccc3F)=NO[C@@H]2C(=O)N1c1ccc(Cc2ccc(N3C(=O)[C@H]4C(c5ccccc5F)=NO[C@H]4C3=O)cc2)cc1` and `Clc1ccc2c(c1)-c1c3c(nn1-c1ccccc1)-c1ccccc1SC3O2` (configuration not stated) cannot be ordered by TGI: over 100 µM for the first, over 100 µM for the second.

`C=CCc1ccc(Oc2cc(CC=C)c3c(c2O)O[C@@H](CO)[C@H]3c2ccc(O)c(-c3cc(CC=C)ccc3O)c2)cc1` and `CCN(CC)c1ccc(N=Nc2ccc(-c3nc4ccc[n+](C)c4s3)cc2)cc1` cannot be ordered by TGI: over 100 µM for the first, over 100 µM for the second.

`Cn1c2ccccc2c(=O)c2ccc(Cl)cc21` and `Cc1[nH]c2ccccc2c(=O)c1CC=C(Cl)Cl` cannot be ordered by TGI: over 10 µM for the first, over 100 µM for the second.

`O=C(NCO)NCOCn1c(=O)n(CO)c(=O)n(CO)c1=O` and `CCCSc1nc(COC(=O)NC)c(COC(=O)NC)n1C` cannot be ordered by TGI: over 79.2 µM for the first, over 100 µM for the second.

`CCSc1nc(SCC)c2cn[nH]c2n1` and `Cn1c(=O)c(Cc2ccccc2F)cc2cnc(NC3CCOCC3)nc21` cannot be ordered by TGI: over 100 µM for the first, over 25 µM for the second.

Compared with `COc1ccc(CCN2COc3c([C@@H](C)CCC=C(C)C)ccc(C)c3C2)cc1OC`, `NC(=O)NCc1c(C(N)=O)ncn1Cc1ccccc1` is higher in TGI: 93.5 µM for the first, over 100 µM for the second.

`O=C1OC2CCCC[C@@H]2C2C[C@]34CCCCC3[C@@H](C(=O)O4)C12` (some centres not stated) and `C1CCC([PH+](C2CCCCC2)C2CCCCC2[PH+](C2CCCCC2)C2CCCCC2)CC1.O=C(C1[CH-]CCCC1)C1CCCC[N-]1.[Au]` (configuration not stated) cannot be ordered by TGI: over 100 µM for the first, over 100 µM for the second.

Compared with `CN(C)c1cc[c]([Sn]([c]2ccc(N(C)C)cc2)([c]2ccc(N(C)C)cc2)[c]2ccc(N(C)C)cc2)cc1`, `O=C1CSC(/C(=N/Nc2ccccc2)c2nc3ccccc3[nH]2)=N1` is higher in TGI: 7.33 µM for the first, over 100 µM for the second.

Compound `O=C1CCC(O)=C1N=Nc1ccccc1` has a TGI of over 100 µM.

`CCSc1nc(SCC)c2cn[nH]c2n1` and `Cn1c(=O)c(Cc2ccccc2F)cc2cnc(NC3CCOCC3)nc21` cannot be ordered by GI50: 67.1 µM for the first, over 25 µM for the second.

Going from `COc1ccc(CCN2COc3c([C@@H](C)CCC=C(C)C)ccc(C)c3C2)cc1OC` to `Cc1[nH]c2ccccc2c(=O)c1CC=C(Cl)Cl`, the GI50 rises from 3.7 µM to 99.2 µM (27-fold).

Compared with `CN(C)c1cc[c]([Sn]([c]2ccc(N(C)C)cc2)([c]2ccc(N(C)C)cc2)[c]2ccc(N(C)C)cc2)cc1`, `C1CCC([PH+](C2CCCCC2)C2CCCCC2[PH+](C2CCCCC2)C2CCCCC2)CC1.O=C(C1[CH-]CCCC1)C1CCCC[N-]1.[Au]` (configuration not stated) is 10-fold lower in GI50: 2.02 µM for the first, 0.194 µM for the second.
